Values quoted from earlier work, collected in patent US8283517B2, “Transgenic mouse models of Aβ overexpression” (Probiodrug AG, priority 2007, dated 2012).

How the values were obtained:
[1] = system: QC; conditions: QC catalyzed conversion of Glu-βNA, pH-dependence data
[2] = not given; remark: listed apart in the source

Row | pKa-value for the α-amino moiety | pKa-value for the γ-carboxylic moiety (printed as 7-carboxylic) | kinetically determined pKa-value [1] | pKa-value of the α-amino group, determined by titration [2] | SMILES
1 | ~7.5 | about 4.2 |  |  | N[C@@H](CCC(=O)O)C(=O)O [Glutamate]
2 |  |  | 7.55+/−0.02 | 7.57±0.05 | N[C@@H](CCC(=O)O)C(=O)Nc1ccc2ccccc2c1 [Glu-βNA]
